Laboratory results from patent US7531482B2, “Thieno-pyrimidine compounds having fungicidal activity” (Dow AgroSciences LLC, priority 2005, dated 2009).

How the values were obtained:
Assay type in all cases: in vivo
Phytophthora infestans = test: whole plant or invertebrate; settings: inoculated one day after treatment; for pest or weed control at 200 ppm: Phytophthora infestans, in Solanum lycopersicum, foliar, read-out: PHYTIN disease control, 200 ppm applied to foliage of tomato
[1] = tested on: Puccinia recondita tritici; test: Leaf Rust of Wheat (PUCCRT) whole-plant disease control test; settings: 200 ppm applied to foliage of wheat, inoculated one day after treatment; for pest or weed control at 200 ppm: Puccinia recondita, foliar, read-out: PUCCRT disease control
Colletotricum lagenarium = test: Cucumber Anthracnose (COLLLA) whole-plant disease control test; settings: Cucumis sativus, foliar; 200 ppm applied to foliage of cucumber; inoculated one day after treatment; read-out: COLLLA disease control
Erysiphe cichoracaerum = test: Cucumber Powdery Mildew (ERYSCI) whole-plant disease control test; settings: Erysiphe, foliar; 200 ppm applied to foliage of cucumber; inoculated one day after treatment; read-out: ERYSCI disease control
Leptosphaeria nodorum = test: Glume Blotch of Wheat (LEPTNO) whole-plant disease control test; settings: Parastagonospora nodorum, foliar; for pest or weed control at 200 ppm: 200 ppm applied to foliage of wheat, inoculated one day after treatment, read-out: LEPTNO disease control; for pest or weed control at 75 ppm: 75 ppm (footnote b), wheat foliage
[2] = tested on: Mycosphaerella graminicola=Septoria tritici; test: Speckled Leaf Blotch of Wheat (SEPTTR) whole-plant disease control test; settings: 75 ppm applied to foliage of wheat; for pest or weed control at 75 ppm: Mycosphaerella, foliar, read-out: SEPTTR disease control
[3] = tested on: Magnaporthe grisea=Pyricularia oryzae; test: whole plant or invertebrate; settings: for pest or weed control at 8.3 ppm / pest or weed control at 200 ppm: Pyricularia oryzae, foliar; for pest or weed control at 8.3 ppm: read-out: PYRIOR disease control, 8.3 ppm (footnote c), rice foliage; for pest or weed control at 200 ppm: read-out: PYRIOR disease control, 200 ppm applied to foliage of rice
[4] = inoculated one day after treatment

SMILES	PHYTIN disease control (Phytophthora infestans; 200 ppm applied to foliage of tomato)	PUCCRT disease control [1]	pest or weed control at 200 ppm (Colletotricum lagenarium) [%]	pest or weed control at 200 ppm (Erysiphe cichoracaerum) [%]	pest or weed control at 200 ppm (Leptosphaeria nodorum) [%]	SEPTTR disease control [2]	PYRIOR disease control ([3]; 200 ppm applied to foliage of rice, inoculated one day after treatment)	pest or weed control at 200 ppm (Phytophthora infestans) [%]	pest or weed control at 200 ppm [1] [%]	pest or weed control at 75 ppm (Leptosphaeria nodorum) [%]	pest or weed control at 75 ppm [2] [%]	pest or weed control at 8.3 ppm [3] [%]	pest or weed control at 200 ppm [3, 4] [%]
Clc1csc2ncnc(NCCc3ccc(Oc4ncnc5scc(Cl)c45)cc3)c12 [Compound 108]	* (* = 0–49 percent control)	* (* = 0–49 percent control)	0 to 49	0 to 49	0 to 49	** (** = 50–79 percent control)	** (** = 50–79 percent control)	–	–	–	–	–	–
Fc1nc(F)c(F)c(Oc2ccc(CCNc3ncnc4scc(Cl)c34)cc2)c1F [Compound 110]	–	–	50 to 79	80 to 100	–	–	–	0 to 49	80 to 100	50 to 79	50 to 79	80 to 100	–
Clc1csc2ncnc(NCCc3ccc(Oc4nc(Br)ns4)cc3)c12 [Compound 112]	–	–	50 to 79	0 to 49	0 to 49	–	–	50 to 79	80 to 100	–	0 to 49	–	80 to 100
Cc1nnsc1Oc1ccc(CCNc2ncnc3scc(Cl)c23)cc1 [Compound 114]	–	–	50 to 79	80 to 100	50 to 79	–	–	80 to 100	80 to 100	–	50 to 79	–	80 to 100
Clc1nsc(Oc2ccc(CCNc3ncnc4scc(Cl)c34)cc2)n1 [Compound 120]	–	–	0 to 49	0 to 49	–	–	–	50 to 79	80 to 100	0 to 49	0 to 49	50 to 79	–
COc1nsc(Oc2ccc(CCNc3ncnc4scc(Cl)c34)cc2)n1 [Compound 122]	–	–	50 to 79	80 to 100	–	–	–	50 to 79	80 to 100	0 to 49	50 to 79	80 to 100	–
COc1cc(CCNc2ncnc3scc(Cl)c23)ccc1Oc1cc(C(F)(F)F)ccn1 [Compound 124, (5-Chlorothieno[2,3-d]pyrimidin-4-yl)-{2-[3-methoxy-4-(4-trifluoromethylpyridin-2-yloxy)phenyl]ethyl}amine]	–	–	50 to 79	80 to 100	–	–	–	50 to 79	80 to 100	0 to 49	0 to 49	80 to 100	–
N#Cc1nccnc1Oc1ccc(CCNc2ncnc3scc(Cl)c23)cc1 [Compound 125]	–	–	0 to 49	50 to 79	–	–	–	50 to 79	80 to 100	0 to 49	50 to 79	80 to 100	–
